The text below walks through data of ChEMBL document CHEMBL5120920, “A Mitochondria-Targeted Phenylbutyric Acid Prodrug Confers Drastically Improved Anticancer Activities” (J Med Chem, 2022).

pIC50: −log10 of the molar value.

In general, IC50 refers to the concentration needed to halve the response being measured. A word on the pIC50: it is the IC50 on a negative log10 scale, so that one unit is a factor of ten.

In the first data set the test system is A-375. Nature of the data set: Induction of cell cycle arrest in human A-375 cells assessed as accumulation at G1 phase at 10 uM incubated for 24 hrs by PI staining based flow cytometry analysis (reference value: 68.07 %).
Conditions: not given
It counts as functional.
As to `O=C(O)CCCCCCCCC[P+](c1ccc(C(F)(F)F)cc1)(c1ccc(C(F)(F)F)cc1)c1ccc(C(F)(F)F)cc1.[Br-]`, the Activity stood at 68.44%.

System in a further data set: not listed separately
Nature of the data set: Cytotoxicity against HEK293T cells assessed as cell growth inhibition measured after 72 hrs by MTT assay. The data set is classed as toxicity, cell-based, HEK-293T. To be noted: human. On the technique in general: Tetrazolium assays rely on reduction of a dye to a coloured formazan, in cell work by metabolically active cells.
In the case of `O=C(CCCc1ccccc1)NCC(CNC(=O)CCCc1ccccc1)(CNC(=O)CCCc1ccccc1)NC(=O)CCCCCCCCC[P+](c1ccc(C(F)(F)F)cc1)(c1ccc(C(F)(F)F)cc1)c1ccc(C(F)(F)F)cc1`, the IC50 at 72 h was above 20 µM.

Another data set concerns A549. Nature of the data set: Antiproliferative activity against human A549 cells assessed as inhibition of cell viability incubated for 72 hrs by MTT assay. The data set is classed as functional, cell-based. To be noted: A549, 72 h.
Consider `O=C(CCCc1ccccc1)NCC(CNC(=O)CCCc1ccccc1)(CNC(=O)CCCc1ccccc1)NC(=O)CCCCCCCCC[P+](c1ccccc1)(c1ccccc1)c1ccccc1`, for which the pIC50 is 6.09.
Regarding `O=C(O)CCCCCCCCC[P+](c1ccccc1)(c1ccccc1)c1ccccc1`, the pIC50 was below 4.70.
On the same count and under the same terms, to `Cc1ccc([P+](CCCCCCCCCC(=O)NC(CNC(=O)CCCc2ccccc2)(CNC(=O)CCCc2ccccc2)CNC(=O)CCCc2ccccc2)(c2ccc(C)cc2)c2ccc(C)cc2)cc1` belongs 6.14; to `O=C(O)CC[P+](c1ccccc1)(c1ccccc1)c1ccccc1`, below 4.70; to `CN(C)c1ccc([P+](CCCCCCCCCC(=O)O)(c2ccc(N(C)C)cc2)c2ccc(N(C)C)cc2)cc1`, 5.73.
Consider `COc1cccc2c1C(=O)c1c(O)c3c(c(O)c1C2=O)C[C@@](O)(C(=O)CO)C[C@@H]3O[C@H]1C[C@H](N)[C@H](O)[C@H](C)O1` [DOXORUBICIN], for which the pIC50 was 6.38.
In the case of `O=C(O)CCCCCCCCC[P+](c1ccc(C(F)(F)F)cc1)(c1ccc(C(F)(F)F)cc1)c1ccc(C(F)(F)F)cc1.[Br-]`, the pIC50 is below 4.70.
Regarding `O=C(CCCc1ccccc1)NCC(CNC(=O)CCCc1ccccc1)(CNC(=O)CCCc1ccccc1)NC(=O)CCCCCCCCC[P+](c1ccc(C(F)(F)F)cc1)(c1ccc(C(F)(F)F)cc1)c1ccc(C(F)(F)F)cc1`, the pIC50 was 5.68.

The next data set deals with A-375. Nature of the data set: Induction of cell cycle arrest in human A-375 cells assessed as accumulation at G2 phase at 10 uM incubated for 24 hrs by PI staining based flow cytometry analysis (reference value: 7.92 %). It counts as functional.
Conditions: not given
Take `O=C(O)CCCCCCCCC[P+](c1ccc(C(F)(F)F)cc1)(c1ccc(C(F)(F)F)cc1)c1ccc(C(F)(F)F)cc1.[Br-]`: the Activity was found to be 11.68%.

System in another data set: not listed separately
Nature of the data set: Cytotoxicity against human HaCaT cells assessed as cell growth inhibition measured after 72 hrs by MTT assay. It counts as toxicity, cell-based.
Conditions: not given
Consider `O=C(CCCc1ccccc1)NCC(CNC(=O)CCCc1ccccc1)(CNC(=O)CCCc1ccccc1)NC(=O)CCCCCCCCC[P+](c1ccc(C(F)(F)F)cc1)(c1ccc(C(F)(F)F)cc1)c1ccc(C(F)(F)F)cc1`, for which the IC50 at 72 h is above 20 µM.

The next data set deals with MCF7. Nature of the data set: Antiproliferative activity against human MCF7 cells assessed as inhibition of cell viability incubated for 72 hrs by MTT assay. To be noted: MCF7, 72 h. The data set is classed as functional, cell-based.
For the compound `O=C(CCCc1ccccc1)NCC(CNC(=O)CCCc1ccccc1)(CNC(=O)CCCc1ccccc1)NC(=O)CCCCCCCCC[P+](c1ccccc1)(c1ccccc1)c1ccccc1`, the pIC50 was 6.27.
With `O=C(O)CCCCCCCCC[P+](c1ccccc1)(c1ccccc1)c1ccccc1`, the pIC50 is below 4.70.
With `Cc1ccc([P+](CCCCCCCCCC(=O)NC(CNC(=O)CCCc2ccccc2)(CNC(=O)CCCc2ccccc2)CNC(=O)CCCc2ccccc2)(c2ccc(C)cc2)c2ccc(C)cc2)cc1`, the negative logarithm of the IC50 (pIC50) is 6.30.
As for `O=C(O)CC[P+](c1ccccc1)(c1ccccc1)c1ccccc1`, the pIC50 was below 4.70.
Consider `CN(C)c1ccc([P+](CCCCCCCCCC(=O)O)(c2ccc(N(C)C)cc2)c2ccc(N(C)C)cc2)cc1`, for which the pIC50 is 5.92.
For the compound `COc1cccc2c1C(=O)c1c(O)c3c(c(O)c1C2=O)C[C@@](O)(C(=O)CO)C[C@@H]3O[C@H]1C[C@H](N)[C@H](O)[C@H](C)O1` [DOXORUBICIN], the pIC50 is 6.40.
In the case of `O=C(O)CCCCCCCCC[P+](c1ccc(C(F)(F)F)cc1)(c1ccc(C(F)(F)F)cc1)c1ccc(C(F)(F)F)cc1.[Br-]`, the pIC50 is below 4.70.
Turning to `O=C(CCCc1ccccc1)NCC(CNC(=O)CCCc1ccccc1)(CNC(=O)CCCc1ccccc1)NC(=O)CCCCCCCCC[P+](c1ccc(C(F)(F)F)cc1)(c1ccc(C(F)(F)F)cc1)c1ccc(C(F)(F)F)cc1`, the pIC50 is 5.72.

System in a further data set: not listed separately
Nature of the data set: Cytotoxicity against human L02 cells assessed as cell growth inhibition measured after 72 hrs by MTT assay. The data set is classed as toxicity, cell-based.
Conditions: not given
Consider `O=C(CCCc1ccccc1)NCC(CNC(=O)CCCc1ccccc1)(CNC(=O)CCCc1ccccc1)NC(=O)CCCCCCCCC[P+](c1ccc(C(F)(F)F)cc1)(c1ccc(C(F)(F)F)cc1)c1ccc(C(F)(F)F)cc1`, for which the IC50 at 72 h was above 20 µM.

In a further data set the test system is MDA-MB-231. Nature of the data set: Antiproliferative activity against human MDA-MB-231 cells assessed as inhibition of cell viability incubated for 72 hrs by MTT assay. Particulars: MDA-MB-231, 72 h. It counts as functional, cell-based.
`O=C(CCCc1ccccc1)NCC(CNC(=O)CCCc1ccccc1)(CNC(=O)CCCc1ccccc1)NC(=O)CCCCCCCCC[P+](c1ccccc1)(c1ccccc1)c1ccccc1`: the pIC50 is 6.51.
On the same count and under the same terms, to `O=C(O)CCCCCCCCC[P+](c1ccccc1)(c1ccccc1)c1ccccc1` belongs below 4.70; to `Cc1ccc([P+](CCCCCCCCCC(=O)NC(CNC(=O)CCCc2ccccc2)(CNC(=O)CCCc2ccccc2)CNC(=O)CCCc2ccccc2)(c2ccc(C)cc2)c2ccc(C)cc2)cc1`, 6.36; to `O=C(O)CC[P+](c1ccccc1)(c1ccccc1)c1ccccc1`, below 4.70.
Regarding `CN(C)c1ccc([P+](CCCCCCCCCC(=O)O)(c2ccc(N(C)C)cc2)c2ccc(N(C)C)cc2)cc1`, the pIC50 is 5.71.
Still for that read-out and setting: then `COc1cccc2c1C(=O)c1c(O)c3c(c(O)c1C2=O)C[C@@](O)(C(=O)CO)C[C@@H]3O[C@H]1C[C@H](N)[C@H](O)[C@H](C)O1` [DOXORUBICIN], with 6.33.
As for `O=C(O)CCCCCCCCC[P+](c1ccc(C(F)(F)F)cc1)(c1ccc(C(F)(F)F)cc1)c1ccc(C(F)(F)F)cc1.[Br-]`, the pIC50 is below 4.70.
Turning to `O=C(CCCc1ccccc1)NCC(CNC(=O)CCCc1ccccc1)(CNC(=O)CCCc1ccccc1)NC(=O)CCCCCCCCC[P+](c1ccc(C(F)(F)F)cc1)(c1ccc(C(F)(F)F)cc1)c1ccc(C(F)(F)F)cc1`, the pIC50 was 5.66.

System in a further data set: not listed separately
Nature of the data set: Cytotoxicity against HUVEC assessed as cell growth inhibition measured after 72 hrs by MTT assay. Particulars: human. It counts as toxicity, cell-based.
With `O=C(CCCc1ccccc1)NCC(CNC(=O)CCCc1ccccc1)(CNC(=O)CCCc1ccccc1)NC(=O)CCCCCCCCC[P+](c1ccc(C(F)(F)F)cc1)(c1ccc(C(F)(F)F)cc1)c1ccc(C(F)(F)F)cc1`, the IC50 at 72 h is above 20 µM.

Another data set relates to A-375. Nature of the data set: Antiproliferative activity against human A-375 cells assessed as inhibition of cell viability incubated for 72 hrs by MTT assay. Particulars: A-375, 72 h. It counts as functional, cell-based.
As to `O=C(CCCc1ccccc1)NCC(CNC(=O)CCCc1ccccc1)(CNC(=O)CCCc1ccccc1)NC(=O)CCCCCCCCC[P+](c1ccccc1)(c1ccccc1)c1ccccc1`, the pIC50 was 6.38.
As for `O=C(O)CCCCCCCCC[P+](c1ccccc1)(c1ccccc1)c1ccccc1`, the pIC50 is below 4.70.
For `Cc1ccc([P+](CCCCCCCCCC(=O)NC(CNC(=O)CCCc2ccccc2)(CNC(=O)CCCc2ccccc2)CNC(=O)CCCc2ccccc2)(c2ccc(C)cc2)c2ccc(C)cc2)cc1`, the pIC50 is 6.21.
Turning to `O=C(O)CC[P+](c1ccccc1)(c1ccccc1)c1ccccc1`, the pIC50 is below 4.70.
For the compound `CN(C)c1ccc([P+](CCCCCCCCCC(=O)O)(c2ccc(N(C)C)cc2)c2ccc(N(C)C)cc2)cc1`, the pIC50 was 5.90.
On to `COc1cccc2c1C(=O)c1c(O)c3c(c(O)c1C2=O)C[C@@](O)(C(=O)CO)C[C@@H]3O[C@H]1C[C@H](N)[C@H](O)[C@H](C)O1` [DOXORUBICIN], for which the pIC50 is 6.48.
Still for that read-out and setting: to `O=C(O)CCCCCCCCC[P+](c1ccc(C(F)(F)F)cc1)(c1ccc(C(F)(F)F)cc1)c1ccc(C(F)(F)F)cc1.[Br-]` belongs below 4.70.
Take `O=C(CCCc1ccccc1)NCC(CNC(=O)CCCc1ccccc1)(CNC(=O)CCCc1ccccc1)NC(=O)CCCCCCCCC[P+](c1ccc(C(F)(F)F)cc1)(c1ccc(C(F)(F)F)cc1)c1ccc(C(F)(F)F)cc1`: the pIC50 is 5.70.

For a further data set, the system named is A-375. Nature of the data set: Induction of cell cycle arrest in human A-375 cells assessed as accumulation at S phase at 10 uM incubated for 24 hrs by PI staining based flow cytometry analysis (reference value: 24.01 %). The data set is classed as functional.
Conditions: not given
In general terms: A flow cytometer gives signals particle by particle.
In the case of `O=C(O)CCCCCCCCC[P+](c1ccc(C(F)(F)F)cc1)(c1ccc(C(F)(F)F)cc1)c1ccc(C(F)(F)F)cc1.[Br-]`, the Activity is 19.88%.
